In the Deep4Chem optical property database:

Assay: solvent given as SMILES

Work on O=C(c1ccc(C(=O)c2ccc(N3c4ccccc4Oc4ccccc43)cc2)cc1)c1ccc(N2c3ccccc3Oc3ccccc32)cc1 yielded an emission maximum (in Cc1ccccc1) of 600 nm and an emission maximum (in c1cc(-c2cccc(-n3c4ccccc4c4ccccc43)c2)cc(-n2c3ccccc3c3ccccc32)c1) of 555 nm.
Work on c1ccc(-c2nc3ccccc3nc2-c2ccc(-n3c4ccccc4c4ccccc43)cc2)cc1 yielded an emission maximum (in Cc1ccccc1) of 434 nm.
